Test systems include TK-10 renal; HT29 colon; COLO 205 colon; SF-268 CNS; NCI-H226 lung; UACC-257 melanoma; SK-MEL-2 melanoma; HOP-92 NSCLC; HL-60(TB) leukemia; PC-3 prostate.
Assay in all cases: growth of human tumour cells (NCI), 48 h

Molecules are shown by their SMILES.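 96-well plates; 48 h exposure; 5 concentrations. Endpoints by linear interpolation between flanking doses. Not reached: highest tested concentration assigned. GI50 = concentration required for 50% inhibition of growth. Definition used: TGI = concentration required for complete inhibition of growth.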 A value given as a limit tells only on which side of the number the result lay.

In PubChem BioAssay (NCI) one finds TGI and GI50 data, which are given here for 18 compounds.

`O=C(NNC(=O)/C(=C/c1cccc([N+](=O)[O-])c1)NC(=O)c1ccccc1)Nc1ccc(Cl)cc1`: the TGI with TK-10 renal is 31.7 µM; in the experiment with HT29 colon, 27.8 µM; in the experiment with COLO 205 colon, 26.8 µM; in the experiment with SF-268 CNS, 29.6 µM; with NCI-H226 lung, 32.2 µM; in the experiment on UACC-257 melanoma, 34.4 µM. The TGI with SK-MEL-2 melanoma came out at 25.5 µM; in the experiment on HOP-92 NSCLC, 40.4 µM; in the experiment on HL-60(TB) leukemia, 30.3 µM.

Regarding `COC1C[C@H](O[C@@H]2C[C@H](O[C@@H]3C[C@H](O[C@@H]4C(=O)c5c(cc6cc(O[C@H]7C[C@@H](O[C@H]8C[C@@H](O)[C@H](O)C(C)O8)[C@H](O)C(C)O7)c(C)c(O)c6c5O)C[C@H]4C(OC)C(=O)[C@@H](O)[C@@H](C)O)OC(C)[C@H]3O)OC(C)[C@@H]2O)OC(C)[C@@H]1O` (some centres not stated), the GI50 in the experiment with TK-10 renal is 0.173 µM; in the experiment on PC-3 prostate it was 123 nM; in the experiment on HT29 colon it was 0.0974 µM; in the experiment on COLO 205 colon, 57.1 nM; in the experiment on SF-268 CNS it was 0.0864 µM; with UACC-257 melanoma, 82.5 nM. In addition, the results for the GI50 in the experiment with SK-MEL-2 melanoma, in the experiment on HOP-92 NSCLC and with HL-60(TB) leukemia were 68 nM, 55.1 nM and 362 nM, respectively. Further, the TGI is 6.4 µM with TK-10 renal; > 32.5 µM in the experiment on PC-3 prostate; > 32.5 µM with HT29 colon; 0.147 µM with COLO 205 colon; > 32.5 µM in the experiment with SF-268 CNS; 0.262 µM with UACC-257 melanoma. In addition, the TGI in the experiment with SK-MEL-2 melanoma was 0.165 µM; in the experiment with HOP-92 NSCLC, 0.25 µM; in the experiment with HL-60(TB) leukemia, > 32.5 µM.

In the case of `Fc1ccc(Nc2ccnc(N3CCN(c4ccnc5cc(Cl)ccc45)CC3)n2)cc1`, the GI50 in the experiment on PC-3 prostate was 1730 nM; in the experiment on HT29 colon, 1.46 µM; with SF-268 CNS, 3.67 µM; in the experiment on NCI-H226 lung it was 2.52 µM; with UACC-257 melanoma it was 1950 nM; in the experiment on SK-MEL-2 melanoma, 2160 nM. The GI50 with HL-60(TB) leukemia is 2590 nM. Moreover, the TGI in the experiment on PC-3 prostate turned out to be 8.33 µM; in the experiment with HT29 colon, 3.14 µM; in the experiment with SF-268 CNS, 40.3 µM; in the experiment with NCI-H226 lung, 17.5 µM; with UACC-257 melanoma it was 4.27 µM; with SK-MEL-2 melanoma, 4.07 µM. Further, the TGI in the experiment with HL-60(TB) leukemia was 6.44 µM.

Turning to `Clc1cc2ns[s+]c2cc1Cl`, the TGI is 98.9 µM in the experiment with TK-10 renal; > 100 µM in the experiment on HT29 colon; > 100 µM with COLO 205 colon; > 100 µM in the experiment with SF-268 CNS; > 100 µM with NCI-H226 lung; > 100 µM in the experiment with UACC-257 melanoma. Further, the TGI in the experiment on SK-MEL-2 melanoma was > 100 µM; with HOP-92 NSCLC it was > 100 µM; with HL-60(TB) leukemia, > 87.2 µM.

Consider `COc1ccc(NC(=O)CC2SC(=Nc3ccc(Cl)cc3C)NC2=O)c([N+](=O)[O-])c1` (configuration not stated), for which the TGI in the experiment with TK-10 renal, in the experiment with HT29 colon, with SF-268 CNS, with NCI-H226 lung, in the experiment on UACC-257 melanoma and in the experiment with SK-MEL-2 melanoma was > 100 µM each time. Further, the TGI in the experiment on HOP-92 NSCLC and in the experiment on HL-60(TB) leukemia was > 100 µM throughout.

Regarding `OCC1OC(N2CCN(C3OC(CO)C(O)C(O)C3O)CC2)C(O)C(O)C1O` (configuration not stated), the TGI with TK-10 renal, in the experiment on PC-3 prostate, in the experiment on HT29 colon, with COLO 205 colon, with SF-268 CNS and in the experiment on NCI-H226 lung was > 100 µM each time. The TGI in the experiment on UACC-257 melanoma, in the experiment on SK-MEL-2 melanoma and in the experiment with HOP-92 NSCLC was > 100 µM throughout.

For `c1ccc2cc(Cn3c(-c4cccc5ccccc45)[n+](Cc4ccc5ccccc5c4)c4c5ccccc5c5ccccc5c43)ccc2c1`, in the experiment on PC-3 prostate, the GI50 is 158 nM and the TGI is 1.53 µM. Further, in the experiment with HL-60(TB) leukemia, the GI50 was 142 nM and the TGI stood at 0.585 µM.

Regarding `CC1=NN(c2ccccc2)C(=O)C1N=Nc1ccc(Br)cc1C` (configuration not stated), the TGI in the experiment with TK-10 renal, with HT29 colon, with COLO 205 colon, with SF-268 CNS, in the experiment with NCI-H226 lung and in the experiment on UACC-257 melanoma was > 100 µM each time. Moreover, the TGI with SK-MEL-2 melanoma, with HOP-92 NSCLC and in the experiment on HL-60(TB) leukemia was > 100 µM throughout.

As for `Cc1c2cc[n+](C)cc2c(C)c2c1[nH]c1ccc(OC(C)(C)C)cc12`, the TGI in the experiment on TK-10 renal, in the experiment on HT29 colon, with COLO 205 colon, with SF-268 CNS, in the experiment on NCI-H226 lung and in the experiment with UACC-257 melanoma was > 100 µM each time. In addition, the TGI in the experiment with SK-MEL-2 melanoma, in the experiment with HOP-92 NSCLC and in the experiment on HL-60(TB) leukemia was > 100 µM throughout.

As to `O=S(=O)(O)c1ccc([Se][Se]c2ccc(S(=O)(=O)O)cc2)cc1`, the TGI in the experiment on TK-10 renal, in the experiment on HT29 colon, in the experiment with COLO 205 colon, in the experiment with SF-268 CNS, in the experiment with NCI-H226 lung and with UACC-257 melanoma was > 100 µM throughout. Besides, the TGI with SK-MEL-2 melanoma, with HOP-92 NSCLC and in the experiment on HL-60(TB) leukemia was > 100 µM throughout.

`COc1ccc(C2[C@@H](Cl)C(=O)N2c2ccc(OC)cc2)cc1` (some centres not stated): the TGI in the experiment with TK-10 renal, in the experiment with HT29 colon, with COLO 205 colon, in the experiment with SF-268 CNS, with NCI-H226 lung and in the experiment on UACC-257 melanoma was > 100 µM throughout. In addition, the TGI in the experiment on SK-MEL-2 melanoma is > 100 µM; in the experiment with HOP-92 NSCLC, 39.5 µM; with HL-60(TB) leukemia, > 100 µM.

Consider `C/C(COc1ccccc1)=N\NC(N)=S`, for which the TGI with TK-10 renal, in the experiment with HT29 colon, with COLO 205 colon, with SF-268 CNS, in the experiment with NCI-H226 lung and in the experiment on UACC-257 melanoma was > 100 µM each time. Moreover, the TGI in the experiment with SK-MEL-2 melanoma, in the experiment on HOP-92 NSCLC and in the experiment with HL-60(TB) leukemia was > 100 µM throughout.

`NC1=NN(c2ccccc2)C(=O)C1/C(=N\NC(=O)c1cc2ccccc2cc1O)C(=O)Nc1ccc(Cl)c(Cl)c1` (configuration not stated): the TGI with TK-10 renal was > 100 µM; in the experiment with HT29 colon, > 100 µM; in the experiment on COLO 205 colon, 36.6 µM; in the experiment with SF-268 CNS it was > 100 µM; in the experiment with NCI-H226 lung it was > 100 µM; in the experiment with UACC-257 melanoma, 84 µM. In addition, the TGI in the experiment on SK-MEL-2 melanoma was > 100 µM; in the experiment on HOP-92 NSCLC, 92 µM; in the experiment with HL-60(TB) leukemia, 39.8 µM.

`O=C(O)[C@@H](Cc1ccccc1)NS(=O)(=O)c1ccc(-c2ccccc2)cc1`: the GI50 in the experiment on TK-10 renal was > 100 µM; in the experiment with PC-3 prostate, > 100000 nM; in the experiment with HT29 colon, > 100 µM; with COLO 205 colon, > 100000 nM; in the experiment with SF-268 CNS, > 100 µM; in the experiment on NCI-H226 lung it was > 100 µM. The GI50 is > 100000 nM in the experiment with UACC-257 melanoma, > 100000 nM in the experiment on SK-MEL-2 melanoma and 24900 nM with HOP-92 NSCLC. The TGI with TK-10 renal, in the experiment on PC-3 prostate, with HT29 colon, in the experiment with COLO 205 colon, in the experiment on SF-268 CNS and in the experiment on NCI-H226 lung was > 100 µM in each case. In addition, the TGI in the experiment on UACC-257 melanoma, in the experiment with SK-MEL-2 melanoma and with HOP-92 NSCLC was > 100 µM in each case.

With `Nc1nc(N)c2c(n1)NC(c1ccc(Cl)cc1)C1CCc3ccccc3C1=N2` (configuration not stated), the GI50 is 8.2 µM with TK-10 renal; 2860 nM with PC-3 prostate; 4.31 µM with HT29 colon; 2780 nM in the experiment with COLO 205 colon; 12.4 µM with SF-268 CNS; 8.58 µM with NCI-H226 lung. Also, the GI50 with UACC-257 melanoma is 7070 nM; with SK-MEL-2 melanoma, 10600 nM; with HOP-92 NSCLC it was 2260 nM. Also, the TGI was 23.2 µM with TK-10 renal; 14.5 µM in the experiment on PC-3 prostate; 18 µM in the experiment on HT29 colon; 9.05 µM with COLO 205 colon; 26.9 µM in the experiment with SF-268 CNS; 27.8 µM in the experiment on NCI-H226 lung. Further, the TGI came to 19.6 µM in the experiment with UACC-257 melanoma, 24.6 µM with SK-MEL-2 melanoma and 9.83 µM in the experiment with HOP-92 NSCLC.

As to `O=C(Nc1c(Cl)cccc1Cl)Oc1cccc2cccnc12`, the GI50 in the experiment on TK-10 renal is 8.98 µM; in the experiment on PC-3 prostate, 6260 nM; with HT29 colon, 19.4 µM; in the experiment with COLO 205 colon, 35200 nM; in the experiment with SF-268 CNS, 5.46 µM; in the experiment on NCI-H226 lung, 4.57 µM. Further, the values for the GI50 in the experiment on UACC-257 melanoma and with HL-60(TB) leukemia were 2740 nM and 3750 nM, respectively. For the same compound, the TGI in the experiment on TK-10 renal was > 100 µM; in the experiment with PC-3 prostate, > 100 µM; in the experiment on HT29 colon, > 100 µM; in the experiment with COLO 205 colon, > 100 µM; with SF-268 CNS, > 100 µM; in the experiment with NCI-H226 lung, 21.7 µM. Further, the TGI in the experiment on UACC-257 melanoma came to 9.72 µM; with HL-60(TB) leukemia it was 20.6 µM.

As for `CC1O[C@@H]2CCCCC(=O)[C@]2(C)[C@H]1C` (some centres not stated), the TGI with TK-10 renal, in the experiment on HT29 colon, in the experiment with COLO 205 colon, in the experiment with NCI-H226 lung, in the experiment on UACC-257 melanoma and with SK-MEL-2 melanoma was > 100 µM in each case. The TGI in the experiment on HOP-92 NSCLC and in the experiment on HL-60(TB) leukemia was > 100 µM throughout.

`CCCCCCCN(CCCCCCC)C(=N)c1ccc(OC)c2ccccc12`: the GI50 is 1.46 µM in the experiment with TK-10 renal; 1350 nM with PC-3 prostate; 1010 nM in the experiment on COLO 205 colon; 1.49 µM in the experiment on SF-268 CNS; 1810 nM in the experiment with SK-MEL-2 melanoma; 603 nM with HOP-92 NSCLC. Moreover, the TGI with TK-10 renal was determined as 2.88 µM; in the experiment on PC-3 prostate, 2.78 µM; in the experiment on COLO 205 colon, 2.35 µM; in the experiment on SF-268 CNS it was 3.16 µM; with SK-MEL-2 melanoma it was 3.4 µM; in the experiment with HOP-92 NSCLC it was 2.02 µM.
